Test results as given in PubChem BioAssay AID652247 (Sanford-Burnham Center for Chemical Genomics, 2013).
Calls of active or inactive are those of the source. The rule behind the calls is not given here.

Target: NEDD8-conjugating enzyme Ubc12 (Homo sapiens) + NEDD8-activating enzyme E1 regulatory subunit (Homo sapiens) (UniProt P61081+Q13564)
Assay: inhibitors of CUL1 neddylation, potency, dose response, biochemical, TR-FRET (AID 652247)
Conditions: in vitro CUL1 neddylation

Sequence of NEDD8-conjugating enzyme Ubc12 (Homo sapiens) + NEDD8-activating enzyme E1 regulatory subunit (Homo sapiens) (P61081 whole entry, looked up): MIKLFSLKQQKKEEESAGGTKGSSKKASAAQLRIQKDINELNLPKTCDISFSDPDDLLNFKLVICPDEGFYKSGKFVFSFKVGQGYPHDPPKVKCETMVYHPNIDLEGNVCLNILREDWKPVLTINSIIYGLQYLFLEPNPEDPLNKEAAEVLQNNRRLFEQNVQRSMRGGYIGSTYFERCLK
Sequence of NEDD8-conjugating enzyme Ubc12 (Homo sapiens) + NEDD8-activating enzyme E1 regulatory subunit (Homo sapiens) (Q13564 whole entry, looked up): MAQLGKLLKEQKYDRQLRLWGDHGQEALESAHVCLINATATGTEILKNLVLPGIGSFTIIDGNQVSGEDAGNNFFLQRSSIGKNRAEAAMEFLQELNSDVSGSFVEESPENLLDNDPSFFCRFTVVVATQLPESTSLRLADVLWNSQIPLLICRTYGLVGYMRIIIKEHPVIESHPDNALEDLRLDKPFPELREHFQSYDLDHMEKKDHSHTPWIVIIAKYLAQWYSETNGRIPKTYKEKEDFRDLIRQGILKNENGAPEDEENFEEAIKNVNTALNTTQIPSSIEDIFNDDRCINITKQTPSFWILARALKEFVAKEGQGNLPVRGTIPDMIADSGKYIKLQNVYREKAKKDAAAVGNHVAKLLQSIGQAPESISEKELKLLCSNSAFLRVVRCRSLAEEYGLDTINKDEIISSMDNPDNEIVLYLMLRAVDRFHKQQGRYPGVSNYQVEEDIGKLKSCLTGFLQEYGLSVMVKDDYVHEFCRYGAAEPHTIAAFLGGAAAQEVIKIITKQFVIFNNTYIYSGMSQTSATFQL

Row | IC50 | Compound
1 | inactive | Cc1cccn2c(=O)c(C=NCc3ccccc3)c(NCCO)nc12
2 | inactive | CCOc1ccc(NC(=O)COC(=O)c2ccc3ncsc3c2)cc1OCC
3 | inactive | Cc1c(C(C)NC(=O)c2cc(COc3cccc4cnccc34)on2)cnn1C (stereo unspecified)
4 | 9.68 µM | CC(=O)Nc1ccc(NC(=O)c2cc(-c3ccc(C)cc3O)n[nH]2)cc1
5 | inactive | CN1CCOc2c1cnn(CCO)c2=O
6 | inactive | CC1CCN(C(=O)Nc2ccc3nsnc3c2)CC1
7 | > 100 µM (inactive) | CCC(=O)Nc1nnc(/C=C/c2ccccc2)s1
8 | inactive | COc1cc(/C=N/Nc2nc3ccccc3[nH]2)cc(Br)c1OCC(=O)N(C)C
9 | > 100 µM (inactive) | O=C1NC(=O)c2cc3ccccc3cc21
10 | inactive | O=C(O)CCc1ccc(-c2ccccc2)n1CC1CCCO1 (stereo unspecified)
11 | inactive | Cc1cccc(C)c1NC(=O)C(C1CC1)n1c(=O)c(-c2ccccc2)nc2ccccc21 (stereo unspecified)
12 | 17.9 µM | Cc1ccc(-n2c3nc(=O)n(C)c(=O)c-3cc3ccccc32)cc1
13 | inactive | O=c1[nH]cnc2nc(-c3ccccc3)c(-c3ccccc3)nc12
14 | inactive | O=C(CN1c2cccc3cccc(c23)S1(=O)=O)NCc1ccc(F)cc1
15 | inactive | COC(=O)c1ccc(-c2ccc(/C=N/NC(=O)CC3(C)OCCCO3)o2)cc1
16 | inactive | COc1ccc(-n2cc(CNCc3cnc4ccccn34)c(-c3cccc(F)c3)n2)cc1
17 | inactive | COC(=O)C1=C(C)NC2=C(C(=O)C(C(=O)OC)C(c3ccc(OC)cc3)C2)C1c1ccccn1 (stereo unspecified)
18 | 9.39 µM | Cc1cccn2c(=O)c3cc(C(=O)NC4CCCC4)sc3nc12
19 | inactive | Cc1cc(-c2ccccc2)c2nncn2n1
20 | inactive | O=C(Nc1ccc2c(c1)OCO2)c1cc(-c2ccc(O)cc2)on1
21 | inactive | Cc1cc(C)n2nc(-c3cnn(C)c3C(F)(F)F)cc2n1
